# Assay results from patent publication US20050054559A1, “Compounds for sustained release of orally delivered drugs” (priority 2000, published 2005).
# Assays:
# pancreatin = assay: Pancreatin stability; format: in vitro ADME, porcine; conditions: gabapentin (2) released by 1% (w/v) pancreatin; prodrug 5 μM; pH 7.5; 37° C.; 60 min
# Method: Pancreatin Stability: Stability studies were conducted by incubating prodrug (5 μM) with 1% (w/v) pancreatin (Sigma, P-1625, from porcine pancreas) in 0.025 M Tris buffer containing 0.5 M NaCl (pH 7.5) at 37° C. for 60 min. The reaction was stopped by addition of 2 volumes of methanol. After centrifugation at 14,000 rpm for 10 min, the supernatant was removed and analyzed by LC/MS/MS.
# [1] = Pharmacokinetics of N-phthaloylglycine prodrug (61) in rats (Example 42); format: in vivo, rat; conditions: oral (61) 240 mg/kg, post dosing
# Method: The pharmacokinetics of the N-phthaloylglycine prodrug (61) is examined in rats. […] Serial blood samples are obtained over 24 hours following dosing and blood is processed for plasma by centrifugation. Plasma samples are stored at −80° C. until analyzed. Concentrations of N-phthaloylglycine or (61) in plasma samples are determined by LC/MS/MS.
# Aminopeptidase 1 = target: T1, Aminopeptidase 1 (Streptomyces griseus subsp. griseus, UniProt P80561); assay: Aminopeptidase stability; format: in vitro ADME; conditions: substrate 5.0 μM, no cofactors, pH 8.0, 37° C.
# T1 construct: purchased Sigma A-9934
# T1 sequence (P80561 46-329): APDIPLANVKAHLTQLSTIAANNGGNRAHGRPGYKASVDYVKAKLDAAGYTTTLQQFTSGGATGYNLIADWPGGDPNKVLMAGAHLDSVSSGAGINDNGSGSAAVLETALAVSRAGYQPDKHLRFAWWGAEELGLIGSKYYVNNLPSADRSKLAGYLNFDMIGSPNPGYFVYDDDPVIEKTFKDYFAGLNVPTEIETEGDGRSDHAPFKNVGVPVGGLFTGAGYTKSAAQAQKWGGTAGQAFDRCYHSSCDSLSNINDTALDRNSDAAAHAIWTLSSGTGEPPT
# Method: Aminopeptidase Stability: Aminopeptidase 1 (Sigma catalog # A-9934) was diluted in deionised water to a concentration of 856 units/mL. Stability studies were conducted by incubating prodrug (5 μM) with 0.856 units/mL aminopeptidase 1 in 50 mM Tris-HCl buffer at pH 8.0 and 37° C. Concentrations of intact prodrug and released drug were determined at zero time and 60 minutes using LC/MS/MS.
# Concentrations of (2), (4), (7g) or Phe-Gabapentin in tissue extracts were determined by direct injection onto an API 2000 LC/MS/MS equipped with an Agilent 1100 binary pump and autosampler. Separation was achieved using a 3.5 μm Zorbax Ellipse XDB-C8 4.4×150 mm column heated to 45° C. during the analysis. The mobile phases were: 0.1% formic acid in water (A) and 0.1% formic acid in acetonitrile (B). The gradient condition was: 2% B for 0.5 min, increasing to 90% B in 2.0 min, maintained for 2.5 min and returning to 2% B for 2 min. A TurbolonSpray source was used on the API 2000. The analysis was performed in the positive ion mode and MRM transitions of 709.5/172.1 and 172.0/137.2 were used in the analysis of Cholyl-Phe-Gabapentin (7g) and gabapentin (2) respectively. Ten microliters of the sample extracts were injected. Peaks were integrated using Analyst quantitation software. The method was linear for (7g) or (2) over the concentration range 0.01 to 12.5 μg/mL and 0.002 to 2.5 μg/mL respectively.
# [2] = Caco-2 homogenate S9 stability; format: in vitro ADME; conditions: substrate 5.0 μM, no cofactors, 37° C.
# Method: Caco-2 Homogenate S9 Stability. Caco-2 cells were grown for 21 days prior to harvesting. Culture medium was removed and cell monolayers were rinsed and scraped off into ice-cold 10 mM sodium phosphate/0.15 M potassium chloride, pH 7.4. Cells were lysed by sonication at 4° C. using a probe sonicator. Lysed cells were then transferred into 1.5 mL centrifuge vials and centrifuged at 9000 g for 20 min at 4° C. The resulting supernatant (Caco-2 cell homogenate S9 fraction) was aliquoted into 0.5 mL vials and stored at −80° C. until used.
# For stability studies, prodrug (5 μM) was incubated in Caco-2 homogenate S9 fraction (0.5 mg protein per mL) for 60 min at 37° C. Concentrations of intact prodrug and released drug were determined at zero time and 60 minutes using LC/MS/MS.
# Concentrations of (2), (4), (7g) or Phe-Gabapentin in tissue extracts were determined by direct injection onto an API 2000 LC/MS/MS equipped with an Agilent 1100 binary pump and autosampler. Separation was achieved using a 3.5 μm Zorbax Ellipse XDB-C8 4.4×150 mm column heated to 45° C. during the analysis. The mobile phases were: 0.1% formic acid in water (A) and 0.1% formic acid in acetonitrile (B). The gradient condition was: 2% B for 0.5 min, increasing to 90% B in 2.0 min, maintained for 2.5 min and returning to 2% B for 2 min. […] Peaks were integrated using Analyst quantitation software. […]
# [3] = In vitro enzymatic release in rat liver S9; conditions: Rat Liver S9 (0.5 mg/mL); substrate 2.0 μM; NADPH; 37° C.
# [4] = In vitro enzymatic release in human liver S9; conditions: Human Liver S9 (0.5 mg/mL); substrate 2.0 μM; NADPH; 37° C.
# [5] = In vitro enzymatic release in rat plasma; conditions: substrate 2.0 μM, no cofactors, 37° C.
# [6] = In vitro enzymatic release in human intestine S9; conditions: Human Intestine S9 (0.5 mg/mL); substrate 2.0 μM; NADPH; 37° C.
# IBAT [7] = target: T2, IBAT (Homo sapiens, UniProt Q12908); assay: Electrogenic transport in Xenopus oocytes expressing IBAT; format: cell-based; conditions: relative to glycodeoxycholate
# T2 sequence (Q12908 whole entry): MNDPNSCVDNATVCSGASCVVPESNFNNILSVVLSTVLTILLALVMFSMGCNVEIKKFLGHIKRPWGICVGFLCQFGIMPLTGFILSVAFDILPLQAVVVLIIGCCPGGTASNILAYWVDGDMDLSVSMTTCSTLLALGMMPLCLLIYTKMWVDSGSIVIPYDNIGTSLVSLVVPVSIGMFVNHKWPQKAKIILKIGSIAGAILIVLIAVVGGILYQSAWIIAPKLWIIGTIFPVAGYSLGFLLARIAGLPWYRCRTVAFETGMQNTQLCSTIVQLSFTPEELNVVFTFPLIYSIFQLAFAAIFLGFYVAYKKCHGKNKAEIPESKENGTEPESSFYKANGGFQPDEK
# Excerpt: RNA preparation: Human IBAT and LBAT Transporter cDNAs were subcloned into a modified pGEM plasmid that contains 5′ and 3′ untranslated sequences from the Xenopus β-actin gene. These sequences increase RNA stability and protein expression. Plasmid cDNA was linearized and used as template for in vitro transcription (Epicentre Technologies transcription kit, 4:1 methylated:non-methylated GTP).
# Xenopus oocyte isolation. Xenopus laevis frogs were anesthetized by immersion in Tricaine ([…] in deionized water) for 15 min. Oocytes were removed and digested in frog ringer solution (90 mM NaCl, 2 mM KCl, 1 mM MgCl2, 10 mM NaHEPES, pH 7.45, no CaCl2) with 1 mg/mL collagenase (Worthington Type 3) for 80-100 min with shaking. The oocytes were washed 6 times, and the buffer changed to frog ringer solution containing CaCl2 (1.8 mM). Remaining follicle cells were removed if necessary. Cells were incubated at 16° C., and each oocyte injected with […] RNA in […] solution.
# Electrophysiology measurements. Transport currents were measured 2-14 days after injection, using a standard two-electrode electrophysiology set-up (Geneclamp 500 amplifier, Digidata 1320/PCLAMP software and ADInstruments hardware and software were used for signal acquisition). Electrodes ([…]) were microfabricated using a Sutter Instrument puller and filled with 3M KCl. The bath was directly grounded (transporter currents were less than 0.3 μA). Bath flow was controlled by an automated perfusion system (ALA Scientific Instruments, solenoid valves).
# For transporter pharmacology, oocytes were clamped at −60 to −90 mV, and continuous current measurements acquired using PowerLab Software and an ADInstruments digitizer. Current signals were lowpass filtered at 20 Hz and acquired at 4-8 Hz. All bath and drug-containing solutions were frog ringers solution containing CaCl2. Drugs were applied for 10-30 seconds until the induced current reached a new steady-state level, followed by a control solution until baseline currents returned to levels that preceded drug application. The difference current (baseline subtracted from peak current during drug application) reflected the net movement of charge resulting from electrogenic transport and was directly proportional to tranport rate. Recordings were made from a single oocyte for up to 60 min, enabling 30-40 separate compounds to be tested per oocyte. […]. Using this normalization procedure Vmax (i.e. maximal induced current) for different compounds tested on different oocytes could be compared.
# [8] = In vitro enzymatic release in human plasma; conditions: substrate 2.0 μM, no cofactors, 37° C.
# IBAT [9] = target: T2, IBAT; assay: Inhibition of radiolabeled taurocholate uptake in IBAT-transfected CHO cells; format: cell-based; set-up: expressed in transfected cells; host or cells: CHO cells; conditions: radiolabeled competition assay in transporter-expressing CHO cells
# Method: (§1) CHO cells transfected with either the IBAT or LBAT transporter were seeded into 96-well microtiter plates at 100,000 cells/well in 100 μL DMEM containing 10% serum, glutamine and Penstrep. After overnight incubation the media was removed and test compound (25 μL) added at 2× the final desired concentration. Tritiated taurocholate (50,000 CPM/well) was diluted with cold substrate to a final concentration of 5 μM and 25 μL/well of this mixture was added to the plate. After incubating for 1 h at room temperature the solution was removed and the plate washed 4× with PBS at 4° C. 200 μL/well of scintillant is added and the plate then read in a Wallac microbeta counter. The inhibition data is processed by standard methods to calculate an inhibition constant Ki for the test compound.
# LBAT = target: T3, LBAT (Homo sapiens, UniProt Q14973); assay: Inhibition of radiolabeled taurocholate uptake in LBAT-transfected CHO cells; format: cell-based; conditions: radiolabeled competition assay in transporter-expressing CHO cells
# T3 construct: expressed in transfected cells; host or cells: CHO cells
# T3 sequence (Q14973 whole entry): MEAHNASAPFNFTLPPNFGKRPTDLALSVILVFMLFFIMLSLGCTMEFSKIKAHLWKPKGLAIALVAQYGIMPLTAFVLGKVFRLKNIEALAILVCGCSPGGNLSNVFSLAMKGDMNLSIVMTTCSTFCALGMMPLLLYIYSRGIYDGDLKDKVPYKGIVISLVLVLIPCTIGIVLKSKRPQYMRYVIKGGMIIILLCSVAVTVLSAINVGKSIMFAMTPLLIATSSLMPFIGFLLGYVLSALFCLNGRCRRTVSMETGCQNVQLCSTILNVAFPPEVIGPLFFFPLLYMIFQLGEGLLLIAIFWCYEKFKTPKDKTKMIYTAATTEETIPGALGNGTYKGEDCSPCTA
# Method: as §1
compound,measurement,setting,value
"CC(CCC(=O)NC(Cc1ccc(O)cc1)C(=O)NCC1(CC(=O)O)CCCCC1)C1CCC2C3C(O)CC4CC(O)CCC4(C)C3CC(O)C12C (stereo not shown) [(7h), Cholyl-Tyr-Gabapentin]",% (2) Released,pancreatin,40%
"N[C@@H](CCC(=O)O)C(=O)N[C@@H](CSC(=O)CN1C(=O)c2ccccc2C1=O)C(=O)NCC(=O)O [Compound (61), H-Glu-Cys(N-phthaloylglycyl)-Gly-OH]",time at which liberated N-phthaloylglycine is apparent in plasma,[1],≤ 30 min
NC(Cc1ccccc1)C(=O)NCC1(CC(=O)O)CCCCC1 (stereo not shown) [Phe-Gabapentin],Percent of Gabapentin Released in 60 min,Aminopeptidase 1,24%
same,Percent of Gabapentin Released in 60 min,[2],21%
same,Percent of Gabapentin Released in 60 min,[3],1%
same,Percent of Gabapentin Released in 60 min,[4],1%
same,Percent of Gabapentin Released in 60 min,[5],19%
same,Percent of Gabapentin Released in 60 min,[6],5%
Cholyl-Dopa-(4-pivaloyloxymethyl) [(21)],Percent of (20) Released in 60 min,[3],35%
same,% Max. (GDC),IBAT [7],104%
same,Percent of (20) Released in 60 min,[8],90%
same,Percent of (20) Released in 60 min,[4],70%
same,Percent of (20) Released in 60 min,[5],75%
same,IC50,IBAT [9],91 µM
same,IC50,LBAT,0.2 µM
same,Percent of (20) Released in 60 min,[6],95%
